Patent US4379779A, “Equilin hapten and assay method” (American Home Products Corporation, priority 1980, dated 1983)

Columns and labels:
[1] = tested on: Equilin Antibody (anti-equilin serum); experiment: Cross-reactivity of steroids with anti-equilin serum (radioimmunoassay); type: binding, rabbit; details: for Equilin Antibody (Percent Cross-Reactivity): Table 1, anti-equilin serum, [2,4-3H]-equilin tracer
Protocol: A standard was prepared from a stock solution of unlabeled equilin in absolute ethanol (100 ng/ml). A working standard solution containing 1 ng/ml of equilin was prepared in sodium phosphate buffer (0.1 M, pH 7, 0.9% NaCl). The labeled [2,4-^3 H]-equilin solution was prepared in the assay buffer at a concentration of 100 pg/ml. The antiserum was prepared in BSA-assay buffer (1 g BSA/1000 ml sodium phosphate buffer) at a concentration of one-fifth of the final working dilutions.
The standard curve was established by preparing duplicate 3 ml centrifuge tubes containing 0, 50, 100, 250, 500, 1000, and 2000 pg of equilin in a total volume of 0.5 ml assay buffer. The sample tubes were prepared in duplicate with hydrolyzed plasma extract (0.1 ml) and assay buffer (0.4 ml) in a total volume of 0.5 ml. To all standard and sample tubes antibody (0.25 ml) and labeled steroid (0.5 ml) were added. These were mixed and allowed to incubate at 4° C. for 18 hr. After addition of 0.2 ml gamma globulin dextrancoated charcoal (4 g charcoal, 0.4 g dextran, 0.8 g human gamma globulin, 200 ml deionized water), each tube was again mixed and placed in a cold room (4° C.) for 20 min. After centrifugation at 2,500 rev./min for 6 min, 0.5 ml of each supernatant was aliquoted into a counting vial. Then 15 ml of a scintillation medium (4 g of 2,5-diphenyloxazole (PPO), 50 mg of 1,4-di-2-(5-phenyloxazoyl)-benzene(dimethyl-POPOP), 100 ml of an aqueous solubilizer Biosolv BBS-3 (Biosolv is a trademark of Bechman Istruments, Irvine, Calif., U.S.A.) and 1000 ml toluene) was added to each vial. The samples were counted to a relative standard error of less than 2% in a Packard model 3320 liquid scintillation counter, Packard Instrument Co., Downers Grove, Ill., U.S.A., see C. Matthijssen and J. W. Goldzieher, Analyt. Biochem., 10, 401 (1965).
All rabbits immunized with the immunogen produced antisera with high titers and specificity in 6 months' time. The titer was determined from the ability of antibody to bind a constant amount (50 pg) of the labeled steroid. As a primary step, the cross-reactivity [G. E. Abraham, J. Clin. Endocrinol. Metabol., 29, 866 (1969)] of estrone with anti-equilin serum obtained from each rabbit was evaluated. […] These latter two compounds represent about 2% each of the typical composition of estrogens present in conjugated estrogens and will not interfere, as shown, in the validation of the assay.

[2] = Oxidation of equilin to equilenin during formic acid hydrolysis of the conjugate fraction (HPLC); type: physicochemical; details: 120 min
Protocol: Plasma (0.2 ml) and distilled water (0.7 ml) were added to a 16×125 nm tube and mixed. [6,7-^3 H]-Estrone-3-sulfate (0.1 ml, 2,000 cpm) and [2,4-^3 H]-equilin (0.1 ml, 2,000 cpm) were then added to correct for recovery through the assay procedure, and the sample again mixed well and allowed to stand at room temperature for 30 min. Diethyl ether (2 ml) was added for extraction of the free compound. The extraction was repeated three times and the combined extracts washed with distilled water (1 ml) and the solvent removed by evaporation. The aqueous phase containing the conjugates was re-extracted with 2 ml of ethyl acetate-ethanol (4:1, v/v). The extraction was repeated two more times and the combined extracts were dried in a centrifuge tube (12 ml) under a stream of nitrogen. The conjugate fraction was hydrolyzed with formic acid. A solution of ethyl acetate (1 ml) containing formic acid (20% ) and ascorbic acid (1 mg) was added to the tube containing the conjugate fraction. The tube was tightly closed, vortexed, and sonified for 10 min before being placed in a 37° C. water bath for 2 hr. The hydrolyzed sample was taken to dryness, sodium phosphate buffer (1 ml) was added. The solution was vortexed and allowed to stand at 20° C. for 10 min. The hydrolyzed free compound was extracted with diethyl ether (2 ml) three times and taken to dryness. […]

Row | Compound | Equilin Antibody (Percent Cross-Reactivity) [1] | other results
1 | C[C@]12CCC(=O)C=C1CC[C@@H]1[C@@H]2CC[C@]2(C)C(=O)CC[C@@H]12 [4-Androstene-3,17-dione] | < 0.10% | 
2 | C[C@]12CC[C@@H]3c4ccc(O)cc4C=C[C@H]3[C@@H]1CCC2=O [6-Dehydroestrone] | < 0.10% | 
3 | C[C@]12CCC3=C(CCc4cc(O)ccc43)[C@@H]1CCC2=O [8-Dehydroestrone] | 0.94% | 
4 | C[C@]12CCc3c(ccc4cc(O)ccc34)[C@@H]1CC[C@H]2O [17α-Dihydroequilenin] | < 0.10% | 
5 | C[C@]12CC[C@H]3C(=CCc4cc(O)ccc43)[C@@H]1CC[C@H]2O [17α-Dihydroequilin] | < 0.10% | 
6 | C[C@]12CC[C@@H]3c4ccc(O)cc4CC[C@H]3[C@@H]1CC[C@H]2O [17α-Estradiol] | < 0.10% | 
7 | C[C@]12CCc3c(ccc4cc(O)ccc34)[C@@H]1CC[C@@H]2O [17β-Dihydroequilenin] | < 0.10% | 
8 | C[C@]12CC[C@H]3C(=CCc4cc(O)ccc43)[C@@H]1CC[C@@H]2O [17β-Dihydroequilin] | 2.86% | cross-reaction with anti-equilin serum [1]: 2.9%
9 | C[C@]12CC[C@@H]3c4ccc(O)cc4CC[C@H]3[C@@H]1CC[C@@H]2O [17β-Estradiol] | < 0.10% | 
10 | C[C@]12CC[C@@H](O)C[C@@H]1CC[C@@H]1[C@@H]2CC[C@]2(C)C(=O)CC[C@@H]12 [Androsterone] | < 0.10% | 
11 | C[C@]12CCC(=O)C=C1CC[C@@H]1[C@@H]2[C@@H](O)C[C@@]2(C)[C@H]1CC[C@]2(O)C(=O)CO [Cortisol] | < 0.10% | 
12 | C[C@]12CC[C@H](O)CC1=CC[C@@H]1[C@@H]2CC[C@]2(C)C(=O)CC[C@@H]12 [Dehydroepiandrosterone] | < 0.10% | 
13 | C[C@]12CCc3c(ccc4cc(O)ccc34)[C@@H]1CCC2=O [Equilenin] | 3.45% | cross-reaction with anti-equilin serum [1]: 3.5%
14 | C[C@]12CC[C@H]3C(=CCc4cc(OS(=O)(=O)O)ccc43)[C@@H]1CCC2=O [Equilin 3-Sulfate] | 1.36% | 
15 | C[C@]12CC[C@H]3C(=CCc4cc(O)ccc43)[C@@H]1CCC2=O [Equilin, 3-hydroxy-1,3,5(10),7-estratetraen-17-one] | 100.0% | equilin oxidized to equilenin during hydrolysis ([2]; formic acid hydrolysis with 0.1% (w/v) ascorbic acid added): 2-3%; equilin oxidized to equilenin during hydrolysis ([2]; hydrolysis of conjugate fraction with formic acid, no antioxidant): 13-16%
16 | C[C@]12CC[C@@H]3c4ccc(O)cc4C[C@@H](O)[C@]3(O)[C@@H]1CCC2=O [Equilin-7α,8α-glycol] | < 0.10% | 
17 | C[C@]12CC[C@@H]3c4ccc(OS(=O)(=O)O)cc4CC[C@H]3[C@@H]1CCC2=O [Estrone 3-sulfate] | < 0.10% | 
18 | C[C@]12CC[C@@H]3c4ccc(O)cc4CC[C@H]3[C@@H]1CCC2=O [Estrone] | 0.78% | cross-reaction with anti-equilin serum [1]: negligible cross-reaction
19 | CC(=O)[C@H]1CC[C@H]2[C@@H]3CCC4=CC(=O)CC[C@]4(C)[C@H]3CC[C@]12C [Progesterone] | < 0.10% | 
20 | C[C@]12CC[C@H]3[C@@H](CCC4=CC(=O)CC[C@@]43C)[C@@H]1CC[C@@H]2O [Testosterone] | < 0.10% | 
